{
  "source": "ChEMBL document CHEMBL5120976",
  "about": "“Application of Deuterated N,N-Dimethyltryptamine in the Potential Treatment of Psychiatric and Neurological Disorders” (ACS Med Chem Lett, 2022)",
  "type_in_all_cases": "ADME, cell-based, Hepatocyte",
  "key": {"[1]": {"assay": "Intrinsic clearance in human hepatocytes assessed per 10^6 cells relative to SPL026"}, "[2]": {"assay": "Intrinsic clearance in human hepatocytes assessed per 10^6 cells", "conditions": "read-out: CLH"}, "[3]": {"assay": "Half life in human hepatocytes"}},
  "data": [
    {"smiles": "O=C(O)/C=C/C(=O)O.[2H]C([2H])([2H])N(CCc1c[nH]c2ccccc12)C([2H])([2H])[2H]", "values": [
      {"measurement": "fold change (FC)", "setting": "[1]", "result": 1.1}
    ]},
    {"smiles": "O=C(O)/C=C/C(=O)O.[2H]C([2H])([2H])N(C([2H])([2H])[2H])C([2H])([2H])Cc1c[nH]c2ccccc12", "values": [
      {"measurement": "hepatocyte CLint", "setting": "[2]", "result": 9.3, "unit": "µL/min/1e6 cells"},
      {"measurement": "half-life", "setting": "[3]", "result": 3.45, "unit": "h"},
      {"measurement": "fold change (FC)", "setting": "[1]", "result": 2.1}
    ]}
  ]
}
